From the supplement of paper PMC5908809

Assays:
NKL (IL-2 2.5 ng/mL) [1] = test: percent inhibition of viability; higher = more inhibition; settings: 72 h
KAI3 (IL-2 2.5 ng/mL) [2] = test: as above; settings: 72 h
IMC-1 (IL-2 20 ng/mL) [3] = test: as above; settings: 72 h
KHYG-1 (IL-2 2.5 ng/mL) [4] = test: as above; settings: 72 h
SNK-6 (IL-2 2.5 ng/mL) [5] = test: as above; settings: 72 h
DERL-7 (IL-2 2.5 ng/mL) [6] = test: as above; settings: 72 h
[7] = tested on: normal primary NK cells, pool 1 (3 donors) (IL-2 2.5 ng/mL); test: as above; settings: 72 h
[8] = tested on: normal primary NK cells, pool 2 (3 donors) (IL-2 2.5 ng/mL); test: as above; settings: 72 h
NK-YS (IL-2 2.5 ng/mL) [9] = test: as above; settings: 72 h
YT (IL-2 2.5 ng/mL) [10] = test: as above; settings: 72 h
[11] = tested on: normal primary NK cells, pool 1 (3 donors), resting (IL-2 0 ng/mL); test: as above; settings: 72 h
NK-92 (IL-2 2.5 ng/mL) [12] = test: as above; settings: 72 h
[13] = tested on: normal primary NK cells, pool 3 (3 donors) (IL-2 2.5 ng/mL); test: as above; settings: 72 h
[14] = tested on: normal NK cells expanded with K562-aAPC; test: drug sensitivity score (DSS) (DSS units); higher = more sensitive; extreme values may be limits of the assay; settings: 72 h; IL-2 2.5 ng/mL
Experimental: (§1)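 Drug sensitivity and resistance testing on K562-aAPC-expanded normal NK cells: 5 concentrations (10-fold steps over a 10,000-fold range), 72 h at 37 °C, viability by CellTiter-Glo normalised to DMSO and benzethonium chloride controls; DSS from the fitted curve.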

NKL (IL-2 2.5 ng/mL) [15] = test: as above; settings: 72 h
KAI3 (IL-2 2.5 ng/mL) [16] = test: as above; settings: 72 h
IMC-1 (IL-2 20 ng/mL) [17] = test: as above; settings: 72 h
KHYG-1 (IL-2 2.5 ng/mL) [18] = test: as above; settings: 72 h
SNK-6 (IL-2 2.5 ng/mL) [19] = test: as above; settings: 72 h
DERL-7 (IL-2 2.5 ng/mL) [20] = test: as above; settings: 72 h
[21] = tested on: normal primary NK cells, pool 1 (3 donors) (IL-2 2.5 ng/mL); test: as above; settings: 72 h
[22] = tested on: normal primary NK cells, pool 2 (3 donors) (IL-2 2.5 ng/mL); test: as above; settings: 72 h
NK-YS (IL-2 2.5 ng/mL) [23] = test: as above; settings: 72 h
YT (IL-2 2.5 ng/mL) [24] = test: as above; settings: 72 h
[25] = tested on: normal primary NK cells, pool 1 (3 donors), resting (IL-2 0 ng/mL); test: as above; settings: 72 h
NK-92 (IL-2 2.5 ng/mL) [26] = test: as above; settings: 72 h
[27] = tested on: normal primary NK cells, pool 3 (3 donors) (IL-2 2.5 ng/mL); test: as above; settings: 72 h
[28] = tested on: normal NK cells expanded with K562-aAPC; test: percent inhibition of viability; higher = more inhibition; settings: 72 h, IL-2 2.5 ng/mL
Experimental: as §1

Cc1c(C(=O)Nc2ccc(N3C[C@@H](C)O[C@@H](C)C3)nc2)cccc1-c1ccc(OC(F)(F)F)cc1 [Sonidegib] (max concentration tested 10000 nM)
percent inhibition of viability [%]
Settings	1 nM	10 nM	100 nM	1000 nM	10000 nM
DERL-7 (IL-2 2.5 ng/mL) [6]	-6.39	0.97	3.22	7.44	7.71
IMC-1 (IL-2 20 ng/mL) [3]	-2.05	0.95	10.7	7.33	66.2
KAI3 (IL-2 2.5 ng/mL) [2]	-9.76	2.17	-0.83	-2.67	26.2
KHYG-1 (IL-2 2.5 ng/mL) [4]	1.09	-0.52	4.83	5.39	33.4
NK-92 (IL-2 2.5 ng/mL) [12]	5.8	1.52	11.2	33.5	79.3
NK-YS (IL-2 2.5 ng/mL) [9]	-0.38	2.73	7.41	11.1	31.1
NKL (IL-2 2.5 ng/mL) [1]	-6.67	3.73	-0.64	6.28	26.8
SNK-6 (IL-2 2.5 ng/mL) [5]	4.68	24.7	23.1	15.3	25.6
YT (IL-2 2.5 ng/mL) [10]	1.1	5.23	7.91	6.65	37
[7]	2.22	-1.01	1.87	-6.02	-0.78
[8]	-5.58	-3.94	1.51	-3.08	-2.7
[11]	7.84	-5.48	2.43	-23.8	-13.6
[13]	-16.4	-5.96	3.9	-2.57	-0.38
[28]	-1.35	-1.33	-0.97	6.62	11.9

Settings	drug sensitivity score
DERL-7 (IL-2 2.5 ng/mL) [20]	0
IMC-1 (IL-2 20 ng/mL) [17]	4.85
KAI3 (IL-2 2.5 ng/mL) [16]	0.87
KHYG-1 (IL-2 2.5 ng/mL) [18]	2.43
NK-92 (IL-2 2.5 ng/mL) [26]	8.23
NK-YS (IL-2 2.5 ng/mL) [23]	2.3
NKL (IL-2 2.5 ng/mL) [15]	2.01
SNK-6 (IL-2 2.5 ng/mL) [19]	10.6
YT (IL-2 2.5 ng/mL) [24]	2.89
[14]	0.28
[21]	0
[22]	0
[25]	0
[27]	0
